Reference: patent US20120252721A1 (priority 2011, published 2012)
pEC50: −log10 of the molar value.

Tests used:
[1] = test system: ZS11-luc R30E (HCV genotype 1b replicon); assay: Luciferase replicon transient transfection assay, ZS11-luc R30E; type: cell-based, hepatitis C virus; settings: for pEC50: Hepatitis C virus, 96 h, Huh7.5 cells, 4 days
Protocol: (§1) The luciferase replicon transient transfection assay measures the ability of a test compound to inhibit the replication of a transiently-transfected HCV luciferase-bearing wild-type or mutant replicon in cured human hepatoma cells (Huh7.5). The inhibition of HCV replication was measured by quantification of luciferase protein expression. This assay has been validated using a panel of genotype 1a and 1b replicons bearing mutations known to be associated with resistance to BMS-790052. Briefly, subconfluent Huh7.5 cells were electroporated with 10 μg of wild-type or mutant luciferase-bearing HCV replicon RNA. The cells were then seeded in 96-well opaque white plates at 3×10^4 cells/well in 150 μL/well and incubated for 4 hrs at 37° C./5% CO2. Ten 1:5 serial dilutions of each test compound were made in media (DMEM containing glucose, L-glutamine and sodium pyruvate, 10% fetal bovine serum, 100 IU/mL penicillin, 100 μg/mL streptomycin, 2 mM GlutaMAX, and 1×MEM non-essential amino acids (Mediatech, Inc. and Invitrogen Corp.)) at concentrations that were 4× higher than the final concentrations to be tested and 50 μL/well was added to the transfected cells. Untreated, mock-transfected cells served as a negative control of luciferase expression. The plates were incubated at 37° C./5% CO2 for 4 days whereupon the media was removed and 50 μL of ONE-glo luciferase substrate (Promega) was added to each well. The plates were agitated on a rotating platform at room temperature for 3 min and read in a Victor^3V microplate reader (Perkin-Elmer) using a 700 nm cut-off filter with a 1 sec read time. EC50 values were calculated from dose response curves from the resulting best-fit equations determined by Microsoft Excel and XLfit 4.1 software.

[2] = test system: 1a-luc Q30K (HCV genotype 1a replicon); assay: Luciferase replicon transient transfection assay, 1a-luc Q30K; type: cell-based, hepatitis C virus; settings: for pEC50: Hepatitis C virus, 96 h, Huh7.5 cells, 4 days
Protocol: as §1

[3] = test system: HCV genotype 1b replicon, NS5B C316Y; assay: Luciferase replicon transient transfection assay, genotype 1b NS5B C316Y; type: cell-based, hepatitis C virus
Protocol: (§2) The luciferase replicon transient transfection assay measures the ability of a test compound to inhibit the replication of a transiently-transfected HCV luciferase-bearing wild-type or mutant replicon in cured human hepatoma cells (Huh7.5). The inhibition of HCV replication was measured by quantification of luciferase protein expression. This assay has been validated using a panel of genotype 1a and 1b replicons bearing mutations known to be associated with resistance to BMS-790052. Briefly, subconfluent Huh7.5 cells were electroporated with 10 μg of wild-type or mutant luciferase-bearing HCV replicon RNA. The cells were then seeded in 96-well opaque white plates at 3×10^4 cells/well in 150 μL/well and incubated for 4 hrs at 37° C./5% CO2. […] The plates were agitated on a rotating platform at room temperature for 3 min and read in a Victor^3V microplate reader (Perkin-Elmer) using a 700 nm cut-off filter with a 1 sec read time. EC50 values were calculated from dose response curves from the resulting best-fit equations determined by Microsoft Excel and XLfit 4.1 software.
(§3) To determine the replication capacity of each mutant relative to the wild-type parental replicon, transfected cells were plated on two plates and were not treated with compound. Luciferase activity was measured at time points of 4 hrs and 4 days after plating for each replicon. […]

[4] = test system: 1a-luc Q30R (HCV genotype 1a replicon); assay: Luciferase replicon transient transfection assay, 1a-luc Q30R; type: cell-based, hepatitis C virus; settings: for pEC50: Hepatitis C virus, 96 h, Huh7.5 cells, 4 days
Protocol: as §1

[5] = test system: 1a-luc M28T (HCV genotype 1a replicon); assay: Luciferase replicon transient transfection assay, 1a-luc M28T; type: cell-based, hepatitis C virus; settings: for pEC50: Hepatitis C virus, 96 h, Huh7.5 cells, 4 days
Protocol: as §1

[6] = test system: HCV genotype 1a replicon, NS5A K24E; assay: Luciferase replicon transient transfection assay, genotype 1a NS5A K24E; type: cell-based, hepatitis C virus; settings: for pEC50: Hepatitis C virus, genotype 1a, HCV region NS5A, mutation K24E
Protocol: as §1

[7] = test system: HCV genotype 1b replicon, NS5B M423T; assay: Luciferase replicon transient transfection assay, genotype 1b NS5B M423T; type: cell-based, hepatitis C virus
Protocol: as §2, §3

[8] = test system: HCV genotype 1a replicon, NS3 T260A; assay: Luciferase replicon transient transfection assay, genotype 1a NS3 T260A; type: cell-based, hepatitis C virus; settings: for pEC50: Hepatitis C virus, genotype 1a, HCV region NS3, mutation T260A
Protocol: as §1
To determine the replication capacity of each mutant relative to the wild-type parental replicon, transfected cells were plated on two plates and were not treated with compound. Luciferase activity was measured at time points of 4 hrs and 4 days after plating for each replicon. Replication capacity was calculated by dividing the day 4 CPS by the 4 hour CPS for each replicon and determining the percentage present for each mutant replicon relative to wild-type replicon values. The NS3, NS4B, and NS5B mutants were prepared and tested according to the methods described herein.

[9] = test system: 1a-luc L31F (HCV genotype 1a replicon); assay: Luciferase replicon transient transfection assay, 1a-luc L31F; type: cell-based, hepatitis C virus; settings: for pEC50: Hepatitis C virus, 96 h, Huh7.5 cells, 4 days
Protocol: as §1

[10] = test system: 1a-luc P32L (HCV genotype 1a replicon); assay: Luciferase replicon transient transfection assay, 1a-luc P32L; type: cell-based, hepatitis C virus; settings: for pEC50: Hepatitis C virus, 96 h, Huh7.5 cells, 4 days
Protocol: as §1

in vitro = type: cell-based; settings: human; GS4.1 cells, cellular viability
Protocol: For cytotoxicity evaluation, GS4.1 cells were treated with compounds as described above and cellular viability was monitored using the Cell Titer 96 AQeous One Solution Cell Proliferation Assay (Promega). CC50 values were determined from the % cytotoxicity versus concentration data with Tecan Magellan software as described above.

Structure (SMILES)	Ratio [1]	pEC50 [1]	Ratio [2]	pEC50 [2]	Ratio [4]	pEC50 [4]	Ratio [5]	pEC50 [5]	pEC50 [6]	Ratio [6]	pEC50 [8]	Ratio [8]	Ratio [9]	pEC50 [9]	Ratio [10]	pEC50 [10]	CC50 (in vitro) [nM]	further results
COC(=O)N[C@H](C(=O)N1CCC[C@H]1c1nc2cc(-c3csc4c(-c5ccc(-c6cnc([C@@H]7CCCN7C(=O)[C@H](NC(=O)OC)c7ccccc7)[nH]6)cc5)csc34)ccc2[nH]1)C(C)C [Compound A169, [(S)-1-((S)-2-{6-[6-(4-{(S)-2-[1-((R)-2-methoxycarbonylamino-2-phenyl-acetyl)-pyrrolidin-2-yl]-3H-imidazol-4-yl}-phenyl)-thieno[3,2-b]thiophen-3-yl]-1H-benzoimidazol-2-yl}-pyrrolidine-1-carbonyl)-2-methyl-propyl]-carbamic acid methyl ester]	1	11.52	310	9.15	10	10.70	155	9.52	11.40	1.83	11.52	1.57	68	9.82	173	9.40	–	pEC50 ([3]; Hepatitis C virus, genotype 1b, NS5B mutation C316Y (confers resistance to Benzofuran/Benzothiadiazine)): 11.64; Ratio ([3]; {}): 1.37; pEC50 ([7]; Hepatitis C virus, genotype 1b, NS5B mutation M423T (confers resistance to Thiophene)): 11.70; Ratio ([7]; {}): 1.22
COC(=O)N[C@H](C(=O)N1CCC[C@H]1c1ncc(-c2ccc(-c3csc4c(-c5cnc([C@@H]6CCCN6C(=O)[C@@H](NC(=O)OC)C(C)C)[nH]5)csc34)cc2)[nH]1)C(C)C [Compound A15, [(S)-1-((S)-2-{4-[4-(6-{2-[(S)-1-((S)-2-methoxycarbonylamino-3-methyl-butyryl)-pyrrolidin-2-yl]-3H-imidazol-4-yl}-thieno[3,2-b]thiophen-3-yl)-phenyl]-1H-imidazol-2-yl}-pyrrolidine-1-carbonyl)-2-methyl-propyl]-carbamic acid methyl ester]	–	–	–	–	–	–	–	–	–	–	–	–	–	–	–	–	10000 to 75000	–
COC(=O)N[C@H](C(=O)N1CCC[C@H]1c1ncc(-c2ccc(-c3csc4c(-c5cnc([C@@H]6CCCN6C(=O)[C@H](NC(=O)OC(C)(C)C)c6ccccc6)[nH]5)csc34)cc2)[nH]1)C(C)C [Compound A111, [(S)-1-((S)-2-{4-[4-(6-{(S)-2-[1-((R)-2-tert-butoxycarbonylamino-2-phenyl-acetyl)-pyrrolidin-2-yl]-3H-imidazol-4-yl}-thieno[3,2-b]thiophen-3-yl)-phenyl]-1H-imidazol-2-yl}-pyrrolidine-1-carbonyl)-2-methyl-propyl]-carbamic acid methyl ester]	–	–	–	–	–	–	–	–	–	–	–	–	–	–	–	–	> 75000	–
COC(=O)N[C@H](C(=O)N1CCC[C@H]1c1ncc(-c2ccc(-c3csc4c(-c5ccc6[nH]c([C@@H]7CCCN7C(=O)[C@H](NC(=O)OC)c7ccccc7)nc6c5)csc34)cc2)[nH]1)C(C)C [Compound A172, [(S)-1-((S)-2-{5-[4-(6-{(S)-2-[1-((R)-2-Methoxycarbonylamino-2-phenyl-acetyl)-pyrrolidin-2-yl]-3H-benzoimidazol-5-yl}-thieno[3,2-b]thiophen-3-yl)-phenyl]-1H-imidazol-2-yl}-pyrrolidine-1-carbonyl)-2-methyl-propyl]-carbamic acid methyl ester]	1	11.22	317	9.00	10	10.40	174	9.15	11.22	1.64	11.22	1.61	67	9.52	173	9.15	–	–
